Test results reported in patent publication US20240368131A1, “OXOINDOLINYL AMIDE DERIVATIVES FOR INHIBITING NLRP3 AND USES THEREOF” (VENTUS THERAPEUTICS U.S. INC., priority 2022, published 2024).

Assays:
Assay type in all cases: cell-based
human NLRP3 [1] = target: T1, human NLRP3 (Homo sapiens, UniProt Q96P20); assay: Human Whole Blood (hWB) NLRP3 Assay (IL-1β MSD); conditions: LPS 1 μg/ml 4.5 h, ATP 30 min, class symbols
Procedure: Human whole blood was drawn from healthy volunteers after obtaining written informed consent. Heparin lithium coated tubes were used to collect blood from volunteers. Blood samples were distributed on 96 well plates using 90 μl per well. Priming was performed by adding 5 μl of LPS (O26:B6; Sigma L-2654) at a final concentration of 1 μg/ml for 4.5 hours in a humidified incubator with 37° C., 5% CO2. Thirty minutes prior to NLRP3 activation, 5 μl of a 20× compound solution or vehicle (2% DMSO) was added to each well and plates were incubated on a shaker (450 rpm) in a humidified incubator with 37° C., 5% CO2. Activation was then performed by adding 3.3 μl of a 31× ATP solution per well. At the end of the 30 minutes stimulation, the plates were centrifuged (800 g, 10 min, room temperature) and the plasma from each well was frozen at −80° C. IL-1β levels in the supernatant were analyzed using a mesoscale discovery assay (MSD K151TUK) according to the manufacturers' instructions.
hWB IL-1β Assay: A represents an IC50 value <0.3 μM; B represents an IC50 value ≥0.3 μM and <0.5 μM; C represents an IC50 value ≥0.5 μM and <1.0 μM; D represents an IC50 value >1.0 μM.

human NLRP3 [2] = target: T1, human NLRP3; assay: Human PBMC NLRP3 Assay (IL-1β release); parameters: Human PBMCs (Normal): iXCells Cat #10HU-003; host or cells: human PBMCs (normal donors), LPS-primed, nigericin-stimulated; conditions: human PBMCs
Procedure: Reagents: Human PBMCs (Normal): iXCells Cat #10HU-003; RPMI 1640 medium (ATCC modification): ThermoFisher Cat #A1049101 (Complete Media: 10% FBS, 1% Pen/Strep; Assay Media: 1% Pen/Strep; 75 cm^2 cell culture flask: Corning Cat #430641U; 96-well cell culture plates: VWR Cat #10062-900; LPS (E. coli 026:B6): Sigma Cat #L2654, stock 5 mg/mL in PBS; Nigericin sodium salt: Sigma Cat #N7143, stock 5 mg/mL (6.7 mM) in ethanol.
Cryopreserved PBMCs (10×10^6 cells/vial) were rapidly thawed in a 37° C. water bath for 2 min and transferred in 10 mL Complete Media. Cells were then centrifuged at 1200 RPM for 5 min, resuspended in 40 mL of Complete Media, transferred in a 75 cm^2 cell culture flask and incubated overnight at 37° C. with 5% CO2. The next day, PBMCs were centrifuged, resuspended in 30 mL Assay Media (˜3.3×10^5 cells/mL) and distributed at 100 μL/well in a 96-well cell culture plate. 50 μl of Assay Media containing 300 ng/ml of LPS was then added to each well except for the untreated control wells (50 μl Assay Media without LPS). Cells were then primed with LPS for 4 h at 37° C. with 5% CO2. A concentration response curve (CRC) was prepared of 500× test compound in 100% dimethyl sulfoxide (DMSO). The CRC was then diluted 1:25 in Assay Media and then further diluted 1:5 in Assay Media resulting in a final 4× CRC in 0.8% DMSO/Assay Media. 50 μL/well of 4× test compound CRC or vehicle (0.8% DMSO/Assay Media) was then transferred into each well and subsequently incubated for 30 min at 37° C. with 5% CO2. Cells were stimulated by adding 4 μL of 500 μM Nigericin, for 1 h at 37° C. with 5% CO2 Plates were then centrifuged at 1200 RPM for 5 min and 100 μl of the media was transferred to a clean 96-well storage plate and stored at −80° C. until analyzed. Cytokine measurements were performed using the mesoscale platform. Compounds were added 30 minutes before priming the cells with LPS when TNFα was required to be quantified in the cytokine panel to confirm selectivity.
Human PBMC NLRP3 Assay: A represents an IC50 value <0.3 μM; B represents an IC50 value ≥0.3 μM and <0.5 μM; C represents an IC50 value ≥0.5 μM and <1.0 μM; D represents an IC50 value >1.0 μM and <10 μM; E represents an IC50 value >10 μM.

mouse NLRP3 = target: T2, mouse NLRP3 (Mus musculus, UniProt Q8R4B8); assay: Mouse Whole Blood (mWB) NLRP3 Assay (IL-1β MSD); conditions: CD1 mouse whole blood, LPS 1 μg/mL 5 h, ATP 5 mM; class symbols
T2 construct: Blood was drawn from female CD1 mice (9 to 10 weeks) by cardiac puncture; from tissue; host or cells: whole blood of female CD1 mice, LPS-primed, ATP-stimulated
T2 sequence (Q8R4B8 whole entry): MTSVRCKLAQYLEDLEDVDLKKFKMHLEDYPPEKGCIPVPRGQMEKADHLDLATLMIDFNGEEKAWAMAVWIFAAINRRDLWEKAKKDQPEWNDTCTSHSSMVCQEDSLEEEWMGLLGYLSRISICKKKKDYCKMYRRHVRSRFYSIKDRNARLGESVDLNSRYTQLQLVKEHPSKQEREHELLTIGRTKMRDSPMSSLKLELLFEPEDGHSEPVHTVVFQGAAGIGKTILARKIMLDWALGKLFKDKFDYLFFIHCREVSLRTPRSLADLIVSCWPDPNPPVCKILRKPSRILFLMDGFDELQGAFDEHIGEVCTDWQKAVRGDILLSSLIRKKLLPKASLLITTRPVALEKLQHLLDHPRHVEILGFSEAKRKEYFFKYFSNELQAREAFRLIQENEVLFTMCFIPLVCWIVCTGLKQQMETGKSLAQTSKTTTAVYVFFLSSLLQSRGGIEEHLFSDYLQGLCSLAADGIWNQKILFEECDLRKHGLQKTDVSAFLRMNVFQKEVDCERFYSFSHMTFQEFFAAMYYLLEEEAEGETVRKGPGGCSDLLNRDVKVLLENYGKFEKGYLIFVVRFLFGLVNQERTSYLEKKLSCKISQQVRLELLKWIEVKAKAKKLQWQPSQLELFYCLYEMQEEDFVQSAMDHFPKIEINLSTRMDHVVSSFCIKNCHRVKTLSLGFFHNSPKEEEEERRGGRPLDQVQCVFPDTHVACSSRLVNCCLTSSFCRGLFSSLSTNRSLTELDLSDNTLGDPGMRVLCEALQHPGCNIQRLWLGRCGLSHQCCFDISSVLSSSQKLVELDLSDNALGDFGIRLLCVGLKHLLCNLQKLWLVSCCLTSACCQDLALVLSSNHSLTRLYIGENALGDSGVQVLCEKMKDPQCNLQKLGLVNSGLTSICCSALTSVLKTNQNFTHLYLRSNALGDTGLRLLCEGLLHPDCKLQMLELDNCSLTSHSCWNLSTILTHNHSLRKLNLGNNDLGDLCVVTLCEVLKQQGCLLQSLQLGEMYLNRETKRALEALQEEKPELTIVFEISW
Procedure: Reagents: The following reagents were used: blood collection tubes (Heparin); U-bottom 96-well tissue culture (Falcon 353077); HBSS for LPS, ATP and compound dilutions (Gibco 24020-117); and LPS, E. coli serotype 026:B6 (Sigma L-2654).
Mouse IL-1b MSD assay: Blood was drawn from female CD1 mice (9 to 10 weeks) by cardiac puncture. Blood was plated (135 μL) per well in 96-well U-bottom plates. 7.5 μL of 20× LPS (20 μg/mL, final concentration of 1 μg/mL) was added and mixed by gentle pipetting, and the mixture was incubated in a TC incubator for five hours. 7.5 μL of 20× compound or vehicle per well was added and mixed by gentle pipetting. Compounds were diluted 1/50 in HBSS to prepare a 20× dilution curve in 2% DMSO. The mixture was incubated for 30 minutes in a TC incubator with shaking (450 rpm). 5 μl of 31× ATP (155 mM, final concentration of 5 mM) was added and mixed by gentle pipetting. The mixture was incubated in a TC incubator for 30 minutes with shaking (450 rpm). The plate was centrifuged for 10 minutes at 800×g and ˜70 μL of plasma was removed. Plasma was frozen if required. Mouse IL-1b was analyzed with IL-1b MSD assay (K152TUK). […]
mWB IL-1β Assay: A represents an IC50 value <0.3 μM; B represents an IC50 value ≥0.3 μM and <0.5 μM; C represents an IC50 value ≥0.5 μM and <1.0 μM; D represents an IC50 value ≥1.0 μM.

[3] = LPS priming 4 h, nigericin stimulation 1 h, class symbols

T1 sequence (Q96P20 whole entry): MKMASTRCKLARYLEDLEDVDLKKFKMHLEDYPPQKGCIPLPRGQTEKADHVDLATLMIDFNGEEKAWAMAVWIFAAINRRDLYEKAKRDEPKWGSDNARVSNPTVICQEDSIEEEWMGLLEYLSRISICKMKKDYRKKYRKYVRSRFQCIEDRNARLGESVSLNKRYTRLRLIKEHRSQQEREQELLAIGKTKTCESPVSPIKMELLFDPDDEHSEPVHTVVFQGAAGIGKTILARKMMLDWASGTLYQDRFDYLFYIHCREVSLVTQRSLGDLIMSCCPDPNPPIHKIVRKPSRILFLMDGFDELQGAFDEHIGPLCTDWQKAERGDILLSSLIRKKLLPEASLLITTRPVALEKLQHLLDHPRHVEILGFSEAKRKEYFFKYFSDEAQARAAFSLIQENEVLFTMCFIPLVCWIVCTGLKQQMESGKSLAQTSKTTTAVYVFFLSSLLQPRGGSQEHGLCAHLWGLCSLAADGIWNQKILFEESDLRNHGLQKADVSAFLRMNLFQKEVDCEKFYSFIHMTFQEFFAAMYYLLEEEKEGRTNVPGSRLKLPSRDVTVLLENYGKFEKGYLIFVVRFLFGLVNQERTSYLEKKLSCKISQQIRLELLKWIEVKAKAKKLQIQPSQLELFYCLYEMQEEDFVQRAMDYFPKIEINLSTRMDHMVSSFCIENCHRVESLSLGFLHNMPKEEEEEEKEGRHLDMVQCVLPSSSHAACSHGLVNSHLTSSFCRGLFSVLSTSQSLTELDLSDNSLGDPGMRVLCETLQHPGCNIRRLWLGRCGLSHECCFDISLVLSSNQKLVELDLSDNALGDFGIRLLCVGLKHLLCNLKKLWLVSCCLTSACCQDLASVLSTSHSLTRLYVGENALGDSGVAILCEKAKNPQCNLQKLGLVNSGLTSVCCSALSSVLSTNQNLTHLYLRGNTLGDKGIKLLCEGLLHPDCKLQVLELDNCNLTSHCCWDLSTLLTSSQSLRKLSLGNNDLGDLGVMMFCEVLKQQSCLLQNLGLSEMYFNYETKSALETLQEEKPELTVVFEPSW

SMILES	IC50 (human NLRP3 [1])	IC50 (human NLRP3 [2]; [3])	IC50 (mouse NLRP3)	IC50 (human NLRP3 [2]; LPS priming, nigericin stimulation, numeric values of Tables C1-C4)
CC1(C)C(=O)N(CC(=O)NC2(CCC(=O)O)CCOC2)c2ccc(Br)cc21 (racemic) [Rac-3, 3-(3-(2-(5-bromo-3,3-dimethyl-2-oxoindolin-1-yl)acetamido)tetrahydrofuran-3-yl)propanoic acid]	500 to 1000 nM	< 300 nM	–	–
C[C@@H](CC(=O)O)[C@@H](C)NC(=O)CN1C(=O)C(C)(C)c2c1ccc(C1CC1)c2F (single isomer, unassigned) [Compound 58A*]	500 to 1000 nM	< 300 nM	–	–
C[C@@H](CC(=O)O)[C@H](NC(=O)CN1C(=O)C(C)(C)c2c1ccc(C1CC1)c2F)C1CC1 (single isomer, unassigned) [Compound 60A*]	500 to 1000 nM	< 300 nM	< 300 nM	–
CC1(C)C(=O)N(CC(=O)NCCCC(=O)O)c2ccc(Cl)cc21 [Compound 4, 4-(2-(5-chloro-3,3-dimethyl-2-oxoindolin-1-yl)acetamido)butanoic acid]	> 1000 nM	–	–	–
CC1(C)C(=O)N(CC(=O)N[C@@H]2CCCN(c3nnn[nH]3)C2)c2ccc(Br)cc21 [Compound 11A, (R)-N-(1-(1H-tetrazol-5-yl)piperidin-3-yl)-2-(5-bromo-3,3-dimethyl-2-oxoindolin-1-yl)acetamide]	> 1000 nM	–	< 300 nM	–
CC1(C)C(=O)N(CC(=O)NCCCC(=O)O)c2ccc(Br)c(F)c21 [Compound 21, 4-(2-(5-bromo-4-fluoro-3,3-dimethyl-2-oxoindolin-1-yl)acetamido)butanoic acid]	< 300 nM	< 300 nM	–	–
CC1(C)C(=O)N(CC(=O)NCCCC(=O)O)c2ccc(I)cc21 [Compound 22, 4-(2-(5-iodo-3,3-dimethyl-2-oxoindolin-1-yl)acetamido)butanoic acid]	< 300 nM	< 300 nM	–	–
CC1(C)C(=O)N(CC(=O)NCCCC(=O)O)c2c(F)cc(Br)cc21 [Compound 24, 4-(2-(5-bromo-7-fluoro-3,3-dimethyl-2-oxoindolin-1-yl)acetamido)butanoic acid]	–	< 300 nM	< 300 nM	20 nM
C[C@H]1C[C@@H](NC(=O)CN2C(=O)C(C)(C)c3cc(Br)cc(O)c32)CN(c2nnn[nH]2)C1 [Compound 26, 2-(5-bromo-7-hydroxy-3,3-dimethyl-2-oxoindolin-1-yl)-N-((3R,5S)-5-methyl-1-(1H-tetrazol-5-yl)piperidin-3-yl)acetamide]	–	–	500 to 1000 nM	–
CC1(C)C(=O)N(CC(=O)NCCCC(=O)O)c2c(O)cc(I)cc21 [Compound 28, 4-(2-(7-hydroxy-5-iodo-3,3-dimethyl-2-oxoindolin-1-yl)acetamido)butanoic acid]	> 1000 nM	< 300 nM	–	–
CC1(C)C(=O)N(CC(=O)NCCCc2nnn[nH]2)c2c(O)cc(C3CC3)cc21 [Compound 29, N-(3-(1H-tetrazol-5-yl)propyl)-2-(5-cyclopropyl-7-hydroxy-3,3-dimethyl-2-oxoindolin-1-yl)acetamide]	> 1000 nM	–	–	–
CN(CCCC(=O)O)C(=O)CN1C(=O)C(C)(C)c2cc(Br)cc(O)c21 [Compound 30, 4-(2-(5-bromo-7-hydroxy-3,3-dimethyl-2-oxoindolin-1-yl)-N-methylacetamido)butanoic acid]	> 1000 nM	< 300 nM	–	–
CC(C)(CCC(=O)O)NC(=O)CN1C(=O)C(C)(C)c2cc(Br)cc(O)c21 [Compound 31, 4-(2-(5-bromo-7-hydroxy-3,3-dimethyl-2-oxoindolin-1-yl)acetamido)-4-methylpentanoic acid]	500 to 1000 nM	< 300 nM	–	–
CC(C)(CCc1nnn[nH]1)NC(=O)CN1C(=O)C(C)(C)c2cc(Br)cc(O)c21 [Compound 32, 2-(5-bromo-7-hydroxy-3,3-dimethyl-2-oxoindolin-1-yl)-N-(2-methyl-4-(1H-tetrazol-5-yl)butan-2-yl)acetamide]	> 1000 nM	–	–	–
CC1(C)C(=O)N(CC(=O)NCCCc2nnn[nH]2)c2c(O)cc(Br)cc21 [Compound 33, N-(3-(1H-tetrazol-5-yl)propyl)-2-(5-bromo-7-hydroxy-3,3-dimethyl-2-oxoindolin-1-yl)acetamide]	> 1000 nM	< 300 nM	–	–
CC1(C)C(=O)N(CC(=O)NCC2(CC(=O)O)CC2)c2c(O)cc(Br)cc21 [Compound 35, 2-(1-((2-(5-bromo-7-hydroxy-3,3-dimethyl-2-oxoindolin-1-yl)acetamido)methyl)cyclopropyl)acetic acid]	> 1000 nM	< 300 nM	–	–
C[C@@H](CCC(=O)O)NC(=O)CN1C(=O)C(C)(C)c2cc(Br)cc(O)c21 [Compound 41B, (S)-4-(2-(5-bromo-7-hydroxy-3,3-dimethyl-2-oxoindolin-1-yl)acetamido)pentanoic acid]	> 1000 nM	< 300 nM	–	–
CC1(C)C(=O)N(CC(=O)NCCCC(=O)O)c2c(O)cc(Cl)cc21 [Compound 47, 4-(2-(5-chloro-7-hydroxy-3,3-dimethyl-2-oxoindolin-1-yl)acetamido)butanoic acid]	300 to 500 nM	–	–	–
C[C@@H](CNC(=O)CN1C(=O)C(C)(C)c2c(F)c(C3CC3)cc(F)c21)CC(=O)O [Compound 61A, (R)-4-(2-(5-cyclopropyl-4,7-difluoro-3,3-dimethyl-2-oxoindolin-1-yl)acetamido)-3-methylbutanoic acid]	300 to 500 nM	–	< 300 nM	–
C[C@H](CNC(=O)CN1C(=O)C(C)(C)c2c(F)c(C3CC3)cc(F)c21)CC(=O)O [Compound 61B, (S)-4-(2-(5-cyclopropyl-4,7-difluoro-3,3-dimethyl-2-oxoindolin-1-yl)acetamido)-3-methylbutanoic acid]	500 to 1000 nM	–	–	–
CC1(C)C(=O)N(CC(=O)NC[C@H](F)CC(=O)O)c2c(F)cc(C3CC3)c(F)c21 [Compound 62A, (R)-4-(2-(5-cyclopropyl-4,7-difluoro-3,3-dimethyl-2-oxoindolin-1-yl)acetamido)-3-fluorobutanoic acid]	300 to 500 nM	–	< 300 nM	–
